Among the test systems are SF-295; NCI-H226; COLO 205; SNB-19; MOLT-4; U-251; Malme-3M; T47D; HCT-15; LOX IMVI; OVCAR-8; UACC-257; DU-145; SN12C; SK-MEL-28; OVCAR-4; SF-268; UO-31; SNB-75.
Holding throughout (test): inhibition of tumour cell growth, NCI panel, 48 h

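Protocol summary: plate cells (96-well), add compound at 5 concentrations, incubate 48 h, interpolate endpoints linearly. GI50 = concentration required for 50% inhibition of growth.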 Active and inactive are the calls of the source. Rule as the data show it: active = GI50 up to about 1.1 µM and inactive = higher. Some results are limits rather than exact numbers.

Here are results for five compounds from ChEMBL document CHEMBL1201862, “PubChem BioAssay data set” (2004).

As for `COC(=O)c1ccc2cc(O)ccc2c1`, the GI50 in the experiment with SF-295 was 53.5 µM (inactive); with NCI-H226, 60.1 µM (inactive); with COLO 205, > 100 µM (inactive); in the experiment on SNB-19, 79.8 µM (inactive); in the experiment with MOLT-4 it was 25.2 µM (inactive); in the experiment with U-251, 87.7 µM (inactive). Further, the GI50 with Malme-3M was > 100 µM (inactive); in the experiment with T47D, 56.4 µM (inactive); in the experiment with HCT-15, more than 100 µM; with LOX IMVI it was 55.6 µM (inactive); with OVCAR-8 it was 53.2 µM (inactive); with UACC-257, > 100 µM (inactive). Besides, the GI50 in the experiment with DU-145 is > 100 µM (inactive); in the experiment on SN12C, > 100 µM (inactive); in the experiment with SK-MEL-28, > 100 µM (inactive); in the experiment with OVCAR-4, > 100 µM (inactive); in the experiment with SF-268 it was 21.5 µM (inactive); in the experiment on UO-31 it was 32.4 µM (inactive).

As to `O=C1CSC2(CC(/C=C/C=C/c3ccccc3)=NN2c2cccc(S(=O)(=O)O)c2)N1c1nc2ccccc2s1` (stereo not given), the GI50 is > 100 µM (inactive) with SNB-75; 24.8 µM (inactive) in the experiment on NCI-H226; 50.8 µM (inactive) with COLO 205; 36.4 µM (inactive) in the experiment on SNB-19; 21.2 µM (inactive) in the experiment on MOLT-4; 24 µM (inactive) in the experiment on U-251. The GI50 in the experiment with T47D was 23.4 µM (inactive); in the experiment on HCT-15, 67.9 µM; in the experiment on LOX IMVI, 20 µM (inactive); with OVCAR-8, 42.1 µM (inactive); with UACC-257 it was 40.6 µM (inactive); in the experiment on SN12C, 62.5 µM (inactive). The GI50 in the experiment on SK-MEL-28 is > 100 µM (inactive); in the experiment with OVCAR-4 it was 36.9 µM (inactive); in the experiment with UO-31 it was 45.3 µM (inactive).

As to `CCN(C(=O)N[C@@H](Cc1ccccc1)C(=O)N[C@@H](CC(C)C)C(=O)OC)c1ccccc1`, the GI50 in the experiment on SF-295 is 26.5 µM (inactive); with NCI-H226, 19.5 µM (inactive); in the experiment on COLO 205, 18 µM (inactive); in the experiment with SNB-19, 77.6 µM (inactive); with MOLT-4 it was 15.8 µM (inactive); in the experiment on U-251, 25.9 µM (inactive). In addition, the GI50 with T47D is 77.6 µM (inactive); with HCT-15, 15.8 µM; with LOX IMVI, 13.8 µM (inactive); in the experiment with OVCAR-8, 15.3 µM (inactive); in the experiment on UACC-257 it was 23.2 µM (inactive); in the experiment on DU-145 it was 17.3 µM (inactive). Besides, the GI50 in the experiment on SN12C is 16 µM (inactive); in the experiment on SK-MEL-28, 17.5 µM (inactive); in the experiment with OVCAR-4 it was 28.1 µM (inactive); in the experiment with UO-31 it was 18.1 µM (inactive).

Regarding `CS(=O)(=O)c1ccc2nc(-c3ccc(O)cc3)sc2c1`, the GI50 in the experiment with SF-295 was 16.7 µM (inactive); with NCI-H226, 18.5 µM (inactive); in the experiment on COLO 205, 22.2 µM (inactive); in the experiment on SNB-19, 17.4 µM (inactive); in the experiment with MOLT-4, 35.6 µM (inactive); with U-251 it was 19 µM (inactive). Further, the GI50 with Malme-3M is 16.7 µM (inactive); in the experiment with HCT-15 it was 16.9 µM; in the experiment on LOX IMVI, 22.1 µM (inactive); with OVCAR-8, 20.5 µM (inactive); in the experiment on UACC-257 it was 19.6 µM (inactive); with DU-145, 15.7 µM (inactive). Moreover, the values for the GI50 in the experiment with SN12C, in the experiment on SF-268 and in the experiment with UO-31 were 17.5 µM (inactive), 15.5 µM (inactive) and 14.8 µM (inactive), respectively.

Take `COc1ccc2c(=O)c(O)c(-c3ccc(OC)c(OC)c3)oc2c1`: the GI50 in the experiment with SF-295 was 10.1 µM (inactive); in the experiment on COLO 205, 28.9 µM (inactive); with SNB-19 it was 15.8 µM (inactive); in the experiment with MOLT-4, 3.22 µM (inactive); in the experiment on U-251, 3.52 µM (inactive); in the experiment with Malme-3M, 15.1 µM (inactive). Moreover, the GI50 was > 100 µM (inactive) with T47D; 3.5 µM with HCT-15; 5.58 µM (inactive) with LOX IMVI; 3.71 µM (inactive) in the experiment with OVCAR-8; 6.76 µM (inactive) in the experiment on UACC-257; 4.04 µM (inactive) in the experiment with DU-145. Also, the GI50 in the experiment on SK-MEL-28 is 8.53 µM (inactive); with OVCAR-4, 0.191 µM (active); in the experiment on SF-268, 4.84 µM (inactive); with UO-31, 2.47 µM (inactive).
